According to patent US5525626A (priority 1989, dated 1996):

Columns and labels:
Assay in all cases: 3H-thymidine assay
Type in all cases: cell-based
[1] = tested on: Tp 483 MG glioblastoma cells
[2] = tested on: Tp 410 N neuroblastoma cells; details: Homo sapiens, Neuroblastoma cell
[3] = tested on: Z-R-75-1 breast cancer cells; details: Homo sapiens
[4] = tested on: Daudi leukemic cells; details: Homo sapiens
[5] = tested on: At T 20; details: Mus musculus
Experimental: (§1) The cell lines were cultivated as indicated in Example 1.
(§2) The antiproliferative effect of the 1,2-benzopyrone derivatives according to the invention on the tumor cell lines in each case was shown with the help of the ^3 H-thymidine insertion and with reference to growth curves.
(§3) In a 24-well-plate, in each case 10^4 cells of the line to be investigated were inoculated per well. Approximately 48 hours later the cells were half-confluent; the medium was then changed and replaced by a medium containing the active substance in question (cf Table 3). After a further 48 hours 0.25 μCi ^3 H-thymidine (Ammersham) was added to each well and the cells were incubated for a further 24 hours. Subsequently the cultures were washed twice with ice-cold PBS and the high-molecular-weight ^3 H-radioactivity was precipitated with 5% trichloroacetic acid for one hour at 4° C. After the washing of the cells in PBS the ^3 H-radioactivity was solubilized with 0.3M NaOH and measured in the counter. The growth-inhibition was determined by comparing the thymidine insertion of the cells treated with active substance with untreated cells.
(§4) The active substance concentration in each case was so chosen that ^3 H-thymidine insertion was 50% inhibited. The active substance concentrations used under this aspect for the active substances and cell lines in each case are given in table 4 below in μM/ml, […]

[6] = tested on: K-562 leukemic cells; details: Homo sapiens
Experimental: as §1, §2, §3, §4

[7] = tested on: GV-1 prostate carcinoma cells
[8] = tested on: Tp 242 MG glioblastoma cells; details: Homo sapiens
[9] = tested on: G-361 melanoma cells; details: Homo sapiens
[10] = tested on: A-375 melanoma cells; details: Homo sapiens
[11] = read-out: 3H-thymidine insertion (%) of control
[12] = read-out: active substance concentration at which 3H-thymidine insertion was 50% inhibited
[13] = ZR-75-1, read-out: 3H-thymidine tracer (%) of control
[14] = read-out: 3H-thymidine tracer (%) of control
[15] = AtT20, read-out: 3H-thymidine tracer (%) of control
[16] = K562, read-out: 3H-thymidine tracer (%) of control
[17] = G-361, read-out: 3H-thymidine tracer (%) of control
[18] = A-375, read-out: 3H-thymidine tracer (%) of control

`O=c1ccc2cc(O[C@@H]3O[C@H](CO)[C@@H](O)[C@H](O)[C@H]3O)c(O)cc2o1` [Esculin, 6-beta-D-glucopyranosyloxy-7-hydroxy-1,2-benzopyrone] showed an activity at 1 µM [1, 11] of 99%, an activity at 2 µM [1, 11] of 97% and an activity at 4 µM [1, 11] of 89%. For the same compound, the activity at 8 µM [1, 11] was 83%, the activity at 16 µM [1, 11] was 74% and the activity at 25 µM [1, 11] was 66%. The activity at 50 µM [1, 11] was 54%, the activity at 100 µM [1, 11] was 51% and the activity at 250 µM [1, 11] was 48%. It also gave an activity at 500 µM [1, 11] of 45%, an IC50 [1, 12] of 100 µM and an activity at 1 µM [2, 11] of 100%. For the same compound, the activity at 2 µM [2, 11] was 96%, the activity at 4 µM [2, 11] was 85% and the activity at 8 µM [2, 11] was 76%. It also gave an activity at 16 µM [2, 11] of 69%, an activity at 25 µM [2, 11] of 62% and an activity at 50 µM [2, 11] of 54%. For the same compound, the activity at 100 µM [2, 11] was 43%, the activity at 250 µM [2, 11] was 38% and the activity at 500 µM [2, 11] was 30%. It also gave an IC50 [2, 12] of 75 µM, an activity at 1 µM [3, 13] of 100% and an activity at 2 µM [3, 13] of 97%. For the same compound, the activity at 4 µM [3, 13] was 89%, the activity at 8 µM [3, 13] was 85% and the activity at 16 µM [3, 13] was 75%. It also gave an activity at 25 µM [3, 13] of 72%, an activity at 50 µM [3, 13] of 64% and an activity at 100 µM [3, 13] of 56%. For the same compound, the activity at 250 µM [3, 13] was 51%, the activity at 500 µM [3, 13] was 47% and the IC50 ([3]; ZR-75-1, read-out: active substance concentration at which 3H-thymidine insertion was 50% inhibited) was 250 µM. For the same compound, the activity at 1 µM [4, 14] was 100%, the activity at 2 µM [4, 14] was 98% and the activity at 4 µM [4, 14] was 93%. The activity at 8 µM [4, 14] was 87%, the activity at 16 µM [4, 14] was 80% and the activity at 25 µM [4, 14] was 71%. The activity at 50 µM [4, 14] was 69%, the activity at 100 µM [4, 14] was 52% and the activity at 250 µM [4, 14] was 48%. The activity at 500 µM [4, 14] was 44%, the IC50 [4, 12] was 100 µM and the activity at 1 µM [5, 15] was 100%. For the same compound, the activity at 2 µM [5, 15] was 94%, the activity at 4 µM [5, 15] was 89% and the activity at 8 µM [5, 15] was 83%. For the same compound, the activity at 16 µM [5, 15] was 72%, the activity at 25 µM [5, 15] was 69% and the activity at 50 µM [5, 15] was 64%. It also gave an activity at 100 µM [5, 15] of 58%, an activity at 250 µM [5, 15] of 49% and an activity at 500 µM [5, 15] of 44%. It also gave an IC50 ([5]; AtT20, read-out: active substance concentration at which 3H-thymidine insertion was 50% inhibited) of 250 µM, an activity at 1 µM [6, 16] of 100% and an activity at 2 µM [6, 16] of 100%. For the same compound, the activity at 4 µM [6, 16] was 96%, the activity at 8 µM [6, 16] was 88% and the activity at 16 µM [6, 16] was 81%. The activity at 25 µM [6, 16] was 72%, the activity at 50 µM [6, 16] was 70% and the activity at 100 µM [6, 16] was 58%. For the same compound, the activity at 250 µM [6, 16] was 51%, the activity at 500 µM [6, 16] was 40% and the IC50 ([6]; K562, read-out: active substance concentration at which 3H-thymidine insertion was 50% inhibited) was 250 µM. It also gave an activity at 1 µM [7, 14] of 97%, an activity at 2 µM [7, 14] of 95% and an activity at 4 µM [7, 14] of 85%. The activity at 8 µM [7, 14] was 84%, the activity at 16 µM [7, 14] was 79% and the activity at 25 µM [7, 14] was 76%. The activity at 50 µM [7, 14] was 68%, the activity at 100 µM [7, 14] was 60% and the activity at 250 µM [7, 14] was 51%. The activity at 500 µM [7, 14] was 43%, the IC50 [7, 12] was 250 µM and the activity at 1 µM [8, 11] was 100%. It also gave an activity at 2 µM [8, 11] of 98%, an activity at 4 µM [8, 11] of 95% and an activity at 8 µM [8, 11] of 81%. For the same compound, the activity at 16 µM [8, 11] was 73%, the activity at 25 µM [8, 11] was 68% and the activity at 50 µM [8, 11] was 65%. It also gave an activity at 100 µM [8, 11] of 61%, an activity at 250 µM [8, 11] of 53% and an activity at 500 µM [8, 11] of 49%. For the same compound, the IC50 [8, 12] was 500 µM, the activity at 1 µM [9, 17] was 98% and the activity at 2 µM [9, 17] was 94%. For the same compound, the activity at 4 µM [9, 17] was 90%, the activity at 8 µM [9, 17] was 86% and the activity at 16 µM [9, 17] was 81%. It also gave an activity at 25 µM [9, 17] of 74%, an activity at 50 µM [9, 17] of 70% and an activity at 100 µM [9, 17] of 63%. For the same compound, the activity at 250 µM [9, 17] was 60%, the activity at 500 µM [9, 17] was 54% and the IC50 ([9]; G-361, read-out: active substance concentration at which 3H-thymidine insertion was 50% inhibited) was over 500 µM. For the same compound, the activity at 1 µM [10, 18] was 100%, the activity at 2 µM [10, 18] was 96% and the activity at 4 µM [10, 18] was 93%. The activity at 8 µM [10, 18] was 87%, the activity at 16 µM [10, 18] was 82% and the activity at 25 µM [10, 18] was 78%. The activity at 50 µM [10, 18] was 71%, the activity at 100 µM [10, 18] was 64% and the activity at 250 µM [10, 18] was 60%. It also gave an activity at 500 µM [10, 18] of 57% and an IC50 ([10]; A-375, read-out: active substance concentration at which 3H-thymidine insertion was 50% inhibited) of over 500 µM.
